Assay results from US10376475B2, “Method of use” (Dermavant Sciences GmbH, priority 2014, dated 2019).
Like-named read-outs stand apart in the source and are kept apart here.

Tests used:
IL-17 = IL-17 secretion by pre-existing (differentiated) Th17 polarized cells after TCR stimulus
IL-17A [1] = experiment: IL-17A protein secretion by peripheral blood CD4+ T cells cultured under Th17 polarizing conditions (Magpix); assay type: cell-based; conditions: 5 days of culture, titrating doses
Procedure: To further understand the active dose range of compound 1-mediated suppression of Th17-associated cytokines, IL-17A protein secretion was examined in peripheral blood CD4+ T cells following 5 days of culture under Th17 polarizing conditions in the presence or absence of titrating doses of Compound 1 (FIG. 2). Supernatants were harvested at the end of the culture period and secreted protein was analyzed by Magpix (magnetic-based Luminex technology).

[2] = test system: human immortalized sebocytes; experiment: Sebocyte lipogenesis assay (14C-acetate); assay type: cell-based; conditions: 10, 3, 1, 0.3 and 0.1 μM
Procedure: Briefly, human immortalized sebocytes (tsSV40 and hTERT) were seeded and allowed to grow to confluence in Sebocyte Growth Medium. Upon confluence, cells were transferred to […] to initiate Large T antigen degradation. Two days later, cells were stimulated with Sebocyte Labeling Medium containing 1 μM T0901317 and vehicle (DMSO) or compound 1. […] Next day, the media was replaced with Sebocyte Labeling Medium containing 1 μM T0901317 and original treatments or vehicle plus 1 μM insulin. 2 ul of 14C-acetate was added per well and the plate incubated for 4 hours. After 2 hours of incubation, 10 ul of CTB reagent was added per well for normalization. Incubation was continued for the remaining 2 hours and plates were read at Ex. 560 Em.590 for CTB signal. Cells were then washed, trypsinized and transferred to glass vials for lipid extraction. The results are expressed as % lipid production relative to control (LXR+Insulin group).
FIG. 4, the data represent % inhibition relative to control (LXR+Insulin group). Data are represented as Mean±SEM. Data are from 3 replicates.

primary human cell types = experiment: BioMAP Diversity Plus System profile comparison; conditions: 148 phenotypic readouts, at one or more test concentration
P. acnes = experiment: MIC against P. acnes on supplemented Brucella blood agar (CLSI); assay type: cell-based, Propionibacterium acnes
Procedure: Bacterial strains utilized to evaluate this concept of antibacterial synergy were the clinical isolates P. acnes 6601, 6602, AN24, 100372, and reference strain ATCC6919. These were received from the internal culture GSK collection held by the Infectious Disease CEDD at the Upper Providence site. Bacteria inocula were prepared, and the determination of the minimal inhibitory concentration (MIC) were conducted on supplemented Brucella blood agar as described for the CLSI guideline method (Bhate, K. et al. Brit. J. Derm. 168:474-485, 2013). Briefly, diluted antibacterials were added to tempered molten agar and aseptically poured into petri dishes and allowed to solidify. Following 24-hours incubation in an anaerobic environment bacterial colonies were suspended and adjusted for turbidity equivalent to a 0.5 MacFarland standard. One-two microliters of inoculums were placed on each antibiotic containing agar plate and allowed to absorb for 30 min. Plates were then inverted and incubated anaerobically for 48-72 hours before observation for growth. The lowest drug concentration which inhibited bacterial growth was designated as the MIC.

IL-17A [3] = assay type: cell-based
[4] = test system: primary human keratinocytes; experiment: Keratinocyte viability (annexin V / propidium iodide flow cytometry); assay type: cell-based; conditions: 10 and 30 uM, 48 hours
Procedure: Keratinocyte hyperproliferation increases blockage and can promote comedome formation in acne. […] The ability of Compound 1 to induce apoptosis in primary keratinocytes may contribute to efficacy in acne patients.
Primary human keratinocytes were cultured in EpiLife medium containing HKGS growth supplement and seeded in tissue culture plates at 250,000 cells per plate. On the next day, the culture medium was removed and keratinocytes were then treated with culture medium containing vehicle control (DMSO) or increasing concentrations of Compound 1 (1, 10, 30 uM). After 48 hours of culture, keratinocytes were removed from tissue culture plates and cell viability was assessed by staining for apoptotic markers (annexin V and propidium iodide) using flow cytometry.

[5] = mouse ear edema; cited from earlier work

Row | SMILES | effect on IL-17 (IL-17; 30 μM) | effect on IL-17 (IL-17; lower concentrations (below 30 μM)) | reduction of IL-17 levels relative to stimulus alone (IL-17; 30 μM, 24 hours) | IL-17A protein levels (IL-17A [1]) | lipogenesis relative to control (LXR+Insulin group) [2] | lipogenesis relative to control (LXR+Insulin group) ([2]; listed as compound 1) | number of biomarkers modulated (primary human cell types) | MIC (P. acnes; Cutibacterium acnes, P. acnes reference strain ATCC6919, read-out: MIC) [µg/mL] | MIC (P. acnes; Cutibacterium acnes, all P. acnes strains tested, read-out: MIC) [µg/mL] | MIC (P. acnes; P. acnes strain 6601) [µg/mL] | MIC (P. acnes; P. acnes strain 6602) [µg/mL] | MIC (P. acnes; P. acnes strain 100372) [µg/mL] | MIC (P. acnes; P. acnes strain AN24) [µg/mL] | antibacterial activity against P. acnes (P. acnes; judgement based on MIC results) | suppression of IL-17 secretion (IL-17A [3]; 100 nM) | reduction of IL-17 (IL-17A [3]; 10 μM) | IL-17A mRNA expression (IL-17A [3]; normalized to PPIB, 5-day culture) | keratinocyte viability / cytotoxicity [4] | skin redness and thickness [5]
1 | Oc1ccc(C=Cc2cc(O)cc(O)c2)cc1 [Resveratrol] | partial inhibition | enhancement | – | – | – | – | – | – | – | – | – | – | – | – | – | – | – | – | –
2 | CC(C)c1c(O)cc(/C=C/c2ccccc2)cc1O [Compound 1] | – | – | 80-95% | suppressed by compound 1 in a dose-dependent manner | not active | trends towards increased lipogenesis | more than 25 | 128 | 128 | 128 | 128 | 128 | 128 | would not be considered to be active | more than 60% | approximately 80% | inhibited IL-17A mRNA expression in parallel and at the same potency as secretion of IL-17 protein | overtly cytotoxic | dose dependent reduction in both skin redness and thickness
